The source made the active and inactive calls. No cut-off for these calls is given here.

For data set [1], the system named is RAW264.7. Nature of the data set: Cytotoxicity against mouse RAW264.7 cells up to 50 ug/ml after 24 hrs by MTT assay in presence of LPS. In kind it is cell-based. As to conditions: raw264.7, 24 h. (In general: Tetrazolium assays rely on reduction of a dye to a coloured formazan, in cell work by metabolically active cells.)
Data set [2] concerns RAW264.7. Nature of the data set: Antiinflammatory activity in mouse RAW264.7 cells assessed as inhibition of LPS-induced IL-10 release at 0.5 to 100 ug/ml incubated for 4 hrs prior to LPS challenge measured after 24 hrs by ELISA. In kind it is functional, cell-based.
For data set [3], the system named is RAW264.7. Nature of the data set: Antiinflammatory activity in mouse RAW264.7 cells assessed as inhibition of LPS-induced IL-6 release at 0.5 to 100 ug/ml incubated for 4 hrs prior to LPS challenge measured after 24 hrs by ELISA. The class given is functional, cell-based.
In data set [4] the test system is RAW264.7. Nature of the data set: Antiinflammatory activity in mouse RAW264.7 cells assessed as inhibition of LPS-induced IL-1beta release at 0.5 to 100 ug/ml incubated for 4 hrs prior to LPS challenge measured after 24 hrs by ELISA. In kind it is functional, cell-based.
The test system of data set [5] is RAW264.7. Nature of the data set: Antiinflammatory activity in mouse RAW264.7 cells assessed as inhibition of LPS-induced TNF-alpha release at 0.5 to 100 ug/ml incubated for 4 hrs prior to LPS challenge measured after 24 hrs by ELISA. In kind it is functional, cell-based.
Data set [6] is described as follows: (§1) Inhibition of LPS-induced NF-kappaB activation in HEK293 cells incubated for 4 hrs prior to LPS challenge measured after 48 hrs by luciferase reporter gene assay. The class given is cell-based. The conditions noted are these: Homo sapiens. On the technique in general: In a reporter assay the amount or activity of a reporter protein is the signal.
The subject of a further data set is HEK293. The description is as §1. The class given is cell-based. As to conditions: Homo sapiens.
In data set [7] the test system is RAW264.7. Nature of the data set: Antiinflammatory activity in mouse RAW264.7 cells assessed as inhibition of LPS-induced IL-10 release incubated for 4 hrs prior to LPS challenge measured after 24 hrs by ELISA. In kind it is functional, cell-based. A general note: In an ELISA, binding on a coated surface is turned into a signal by an enzyme label.
In data set [8] the test system is RAW264.7. Nature of the data set: Antiinflammatory activity in mouse RAW264.7 cells assessed as inhibition of LPS-induced IL-6 release incubated for 4 hrs prior to LPS challenge measured after 24 hrs by ELISA. The class given is functional, cell-based.
Data set [9] concerns RAW264.7. Nature of the data set: Antiinflammatory activity in mouse RAW264.7 cells assessed as inhibition of LPS-induced IL-1beta release incubated for 4 hrs prior to LPS challenge measured after 24 hrs by ELISA. The class given is functional, cell-based.
Data set [10] concerns RAW264.7. Nature of the data set: Antiinflammatory activity in mouse RAW264.7 cells assessed as inhibition of LPS-induced TNF-alpha release incubated for 4 hrs prior to LPS challenge measured after 24 hrs by ELISA. The class given is functional, cell-based.

Regarding `C[C@]1(CO)CC[C@]2(C(=O)O[C@@H]3O[C@H](CO)[C@@H](O)[C@H](O)[C@H]3O)CC[C@]3(C)C(=C2C1)CC[C@@H]1[C@@]2(C)C[C@@H](O)[C@H](O)[C@@](C)(CO)[C@@H]2CC[C@]13C`, the Activity result in the data set on RAW264.7 [1] is “Non-toxic”. Besides, the inhibition entry in the data set with RAW264.7 [2], in the data set on RAW264.7 [3], in the data set with RAW264.7 [4] and in the data set with RAW264.7 [5] was “Active” throughout. The IC50 (in general, the concentration that inhibits the measured activity by half) in data set [6] stood at 65.6 µM. In addition, in the data set on HEK293, the inhibition entry is “Dose-dependent effect”.
As for `C[C@@H]1CC[C@]2(C(=O)O)CC[C@]3(C)C(=CC[C@@H]4[C@@]5(C)C[C@@H](O)[C@@H](O)[C@@](C)(CO)[C@@H]5CC[C@]43C)[C@@H]2[C@]1(C)O`, the IC50 was determined as 10.4 µM in the data set with RAW264.7 [7]; 8.04 µM in the data set on RAW264.7 [8]; 8.53 µM in the data set with RAW264.7 [9]; 14.3 µM in the data set on RAW264.7 [10]; 23.2 µM in data set [6]. In addition, the Activity entry in the data set on RAW264.7 [1] was “Non-toxic”. Also, the inhibition result with RAW264.7 [2], with RAW264.7 [3], in the data set on RAW264.7 [4] and in the data set on RAW264.7 [5] was “Active” in each case. Besides, the inhibition entry with HEK293 is “Dose-dependent effect”.
On to `C[C@@H]1CC[C@]2(C(=O)O)CC[C@]3(C)C(=CC[C@@H]4[C@@]5(C)C[C@@H](O)[C@H](O)[C@@](C)(CO)[C@@H]5CC[C@]43C)[C@@H]2[C@]1(C)O`, for which, in the data set on RAW264.7 [1], the Activity result is given as “Non-toxic”. Further, the inhibition result in the data set on RAW264.7 [2], in the data set on RAW264.7 [3], in the data set on RAW264.7 [4] and in the data set on RAW264.7 [5] was “Active” throughout. In [6], this compound displayed an IC50 of 79 µM. In the data set with HEK293, the inhibition entry is “Dose-dependent effect”.
As for `C[C@@H]1CC[C@]2(C(=O)O)CC[C@]3(C)C(=CC[C@@H]4[C@@]5(C)C[C@@H](O)[C@@H](O)C(C)(C)[C@@H]5CC[C@]43C)[C@@H]2[C@]1(C)O` [EUSCAPHIC ACID], the Activity result in the data set with RAW264.7 [1] is given as “Non-toxic”. For the same compound, the IC50 in [6] stood at 175 µM. In the data set on HEK293, the inhibition result is “Dose-dependent effect”.

Values taken from ChEMBL document CHEMBL2384960, “Anti-inflammatory secondary metabolites from the leaves of Rosa laevigata” (Bioorg Med Chem, 2013).
